Test results taken from patent US20230265151A1, “GIP/GLP1 CO-AGONIST COMPOUNDS” (priority 2020, published 2023).
Like-named read-outs stand apart in the source and are kept apart here.

Columns and labels:
hGIPR = target: T1, hGIPR (Homo sapiens, UniProt P48546); assay: Functional cAMP formation (HTRF) in HEK-293 clonal cells expressing hGIPR, 0.1% bovine casein, without or with 1.0% human serum albumin; format: cell-based; conditions: for EC50: geometric mean
T1 construct: expressed in transfected cells
T1 sequence (P48546 22-466): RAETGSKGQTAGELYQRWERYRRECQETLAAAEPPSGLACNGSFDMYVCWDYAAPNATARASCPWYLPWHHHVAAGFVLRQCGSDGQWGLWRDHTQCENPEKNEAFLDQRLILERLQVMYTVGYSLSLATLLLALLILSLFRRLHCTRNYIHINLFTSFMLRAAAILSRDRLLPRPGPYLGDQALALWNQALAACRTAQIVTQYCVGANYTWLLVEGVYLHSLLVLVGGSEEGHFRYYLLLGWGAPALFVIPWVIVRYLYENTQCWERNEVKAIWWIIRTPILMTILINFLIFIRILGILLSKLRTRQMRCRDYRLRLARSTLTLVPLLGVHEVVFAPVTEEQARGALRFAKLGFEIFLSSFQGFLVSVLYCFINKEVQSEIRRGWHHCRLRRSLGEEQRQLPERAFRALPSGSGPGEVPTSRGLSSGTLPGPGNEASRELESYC
Procedure, shortened: (§1)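 Cells were stimulated with peptide for 30 min at 37° C, then lysed in buffer carrying cAMP-d2 and anti-cAMP Eu3+-cryptate for a competitive HTRF read after at least 60 min at room temperature. The 665/620 nm ratio was converted to nM cAMP against a standard curve.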

hGCGR = target: T2, hGCGR (Homo sapiens, UniProt P47871); assay: Functional cAMP formation (HTRF) in HEK-293 clonal cells expressing hGCGR, 0.1% bovine casein, without or with 1.0% human serum albumin; format: cell-based; conditions: geometric mean
T2 construct: expressed in transfected cells
Procedure, shortened: as §1

[1] = HEK293, percent of maximal response to GIP(1-42)NH2, 37° C., 0.1% bovine casein, arithmetic mean, read-out: hGIPR Emax, % ± SEM
[2] = cAMP, incubated at 37° C., 0.1% bovine casein (no human serum albumin), read-out: hGCGR EC50, nM (SEM, n)

T2 sequence (P47871 26-477): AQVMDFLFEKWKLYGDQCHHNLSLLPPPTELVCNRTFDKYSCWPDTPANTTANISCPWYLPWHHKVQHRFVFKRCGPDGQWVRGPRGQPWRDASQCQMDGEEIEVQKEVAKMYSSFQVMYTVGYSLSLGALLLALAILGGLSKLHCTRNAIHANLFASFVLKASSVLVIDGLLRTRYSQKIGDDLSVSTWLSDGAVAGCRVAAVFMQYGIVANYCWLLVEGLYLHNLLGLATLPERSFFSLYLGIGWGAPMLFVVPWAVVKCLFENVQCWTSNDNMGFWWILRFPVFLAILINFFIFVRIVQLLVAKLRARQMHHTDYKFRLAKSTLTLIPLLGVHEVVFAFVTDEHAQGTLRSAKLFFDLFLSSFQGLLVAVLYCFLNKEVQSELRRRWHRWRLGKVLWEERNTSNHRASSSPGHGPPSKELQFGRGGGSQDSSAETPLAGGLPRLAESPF

SMILES: CC[C@H](C)[C@H](NC(=O)[C@H](CC(C)C)NC(=O)[C@](C)(Cc1ccc(O)cc1)NC(=O)[C@@H](CCC(=O)O)NC(=O)[C@@H](NC(=O)[C@H](Cc1ccccc1)NC(=O)[C@H](CCC(=O)O)NC(=O)C(C)(C)NC(=O)[C@H](CCC(N)=O)NC(=O)[C@H](C)NC(=O)[C@H](CCCCNC(=O)COCCOCCNC(=O)COCCOCCNC(=O)CC[C@H](NC(=O)CCCCCCOc1ccc(C(=O)O)cc1)C(=O)O)NC(=O)[C@H](CCCN)NC(=O)[C@H](CC(=O)O)NC(=O)[C@H](CC(C)C)NC(=O)[C@](C)(CC(C)C)NC(=O)[C@@H](NC(=O)[C@H](CO)NC(=O)[C@H](Cc1ccncc1)NC(=O)[C@H](CC(=O)O)NC(=O)[C@H](CO)NC(=O)[C@@H](NC(=O)[C@](C)(Cc1ccccc1F)NC(=O)[C@@H](NC(=O)CNC(=O)[C@H](CCC(=O)O)NC(=O)C(C)(C)NC(=O)[C@@H](N)Cc1ccc(O)cc1)[C@@H](C)O)[C@@H](C)O)[C@@H](C)CC)[C@@H](C)CC)C(=O)N[C@@H](CCC(=O)O)C(=O)NCC(=O)NCC(=O)N[C@@H](CCCCNC(=O)COCCOCCNC(=O)COCCOCCNC(=O)CC[C@H](NC(=O)CCCCCCOc1ccc(C(=O)O)cc1)C(=O)O)C(=O)N[C@@H](CO)C(=O)N[C@@H](CO)C(=O)NCC(=O)N[C@@H](C)C(=O)N1CCC[C@H]1C(=O)N1CCC[C@H]1C(=O)N1CCC[C@H]1C(=O)N[C@@H](CO)C(N)=O [Example 125]
- Emax (hGIPR; [1]): 94.4%
- EC50 (hGIPR; cAMP, incubated at 37° C., 0.1% bovine casein (no human serum albumin), read-out: hGIPR EC50, nM (SEM, n)): 0.0547 nM
- EC50 (hGCGR; [2]): > 9950 nM

SMILES: CC[C@H](C)[C@H](NC(=O)[C@H](CC(C)C)NC(=O)[C@](C)(Cc1ccc(O)cc1)NC(=O)[C@@H](CCC(=O)O)NC(=O)[C@@H](NC(=O)[C@H](Cc1ccccc1)NC(=O)[C@H](CCC(=O)O)NC(=O)[C@](C)(Cc1ccccc1)NC(=O)[C@H](CCC(N)=O)NC(=O)[C@H](C)NC(=O)[C@H](CCCCNC(=O)COCCOCCNC(=O)COCCOCCNC(=O)CC[C@H](NC(=O)CCCCCCCCCCCCC(=O)O)C(=O)O)NC(=O)[C@H](CCCN)NC(=O)[C@H](CC(=O)O)NC(=O)[C@H](CC(C)C)NC(=O)[C@](C)(CC(C)C)NC(=O)[C@@H](NC(=O)[C@H](CO)NC(=O)[C@H](Cc1ccncc1)NC(=O)[C@H](CC(=O)O)NC(=O)[C@H](CO)NC(=O)[C@@H](NC(=O)[C@](C)(Cc1ccccc1F)NC(=O)[C@@H](NC(=O)CNC(=O)[C@H](CCC(=O)O)NC(=O)C(C)(C)NC(=O)[C@@H](N)Cc1ccc(O)cc1)[C@@H](C)O)[C@@H](C)O)[C@@H](C)CC)[C@@H](C)CC)C(=O)N[C@@H](CCC(=O)O)C(=O)NCC(=O)NCC(=O)N[C@@H](CCCCNC(=O)COCCOCCNC(=O)COCCOCCNC(=O)CC[C@H](NC(=O)CCCCCCCCCCCCC(=O)O)C(=O)O)C(=O)N[C@@H](CO)C(=O)N[C@@H](CO)C(=O)NCC(=O)N[C@@H](C)C(=O)N1CCC[C@H]1C(=O)N1CCC[C@H]1C(=O)N1CCC[C@H]1C(=O)N[C@@H](CO)C(N)=O [Example 169]
- Emax (hGIPR; [1]): 96.1%
- EC50 (hGCGR; [2]): > 9950 nM

SMILES: CC[C@H](C)[C@H](NC(=O)[C@H](CC(C)C)NC(=O)[C@](C)(Cc1ccc(O)cc1)NC(=O)[C@H](CCCCNC(=O)[C@@H](N)CCCCNC(=O)[C@@H](N)CCCCNC(=O)CC[C@H](NC(=O)CCCCCCCCCCCCC(=O)O)C(=O)O)NC(=O)[C@@H](NC(=O)[C@H](Cc1ccccc1)NC(=O)[C@H](CCC(=O)O)NC(=O)C(C)(C)NC(=O)[C@H](CCC(N)=O)NC(=O)[C@H](C)NC(=O)[C@H](CCCCNC(=O)[C@@H](N)CCCCNC(=O)[C@@H](N)CCCCNC(=O)CC[C@H](NC(=O)CCCCCCCCCCCCC(=O)O)C(=O)O)NC(=O)[C@H](CCCN)NC(=O)[C@H](CC(=O)O)NC(=O)[C@H](CC(C)C)NC(=O)[C@](C)(CC(C)C)NC(=O)[C@@H](NC(=O)[C@H](CO)NC(=O)[C@H](Cc1ccncc1)NC(=O)[C@H](CC(=O)O)NC(=O)[C@H](CO)NC(=O)[C@@H](NC(=O)[C@](C)(Cc1ccccc1F)NC(=O)[C@@H](NC(=O)CNC(=O)[C@H](CCC(=O)O)NC(=O)C(C)(C)NC(=O)[C@@H](N)Cc1ccc(O)cc1)[C@@H](C)O)[C@@H](C)O)[C@@H](C)CC)[C@@H](C)CC)C(=O)N[C@@H](CCC(=O)O)C(=O)NCC(=O)NCC(=O)N1CCC[C@H]1C(=O)N[C@@H](CO)C(=O)N[C@@H](CO)C(=O)NCC(=O)N[C@@H](C)C(=O)N1CCC[C@H]1C(=O)N1CCC[C@H]1C(=O)N1CCC[C@H]1C(=O)N[C@@H](CO)C(N)=O [Example 162]
- Emax (hGIPR; HEK293, read-out: hGIPR Emax, % ± SEM, percent of maximal response to GIP(1-42)NH2, 37° C., 0.1% bovine casein, arithmetic mean): 89.7%
- EC50 (hGIPR; hGIPR EC50, nM (SEM, n), cAMP, incubated at 37° C., 0.1% bovine casein (no human serum albumin)): 0.022 nM
- EC50 (hGCGR; hGCGR EC50, nM (SEM, n), cAMP, incubated at 37° C., 0.1% bovine casein (no human serum albumin)): > 9950 nM

SMILES: CC[C@H](C)[C@H](NC(=O)[C@H](CC(C)C)NC(=O)[C@](C)(Cc1ccc(O)cc1)NC(=O)[C@@H](CCC(=O)O)NC(=O)[C@@H](NC(=O)[C@H](Cc1ccccc1)NC(=O)[C@H](CCC(=O)O)NC(=O)C(C)(C)NC(=O)[C@H](CCC(N)=O)NC(=O)[C@H](C)NC(=O)[C@H](CCCCNC(=O)COCCOCCNC(=O)COCCOCCNC(=O)CC[C@H](NC(=O)CCCCCCCCCOc1ccc(C(=O)O)cc1)C(=O)O)NC(=O)[C@H](CCCN)NC(=O)[C@H](CC(=O)O)NC(=O)[C@H](CC(C)C)NC(=O)[C@](C)(CC(C)C)NC(=O)[C@@H](NC(=O)[C@H](CO)NC(=O)[C@H](Cc1ccc2ccccc2c1)NC(=O)[C@H](CC(=O)O)NC(=O)[C@H](CO)NC(=O)[C@@H](NC(=O)[C@](C)(Cc1ccccc1F)NC(=O)[C@@H](NC(=O)CNC(=O)[C@H](CCC(=O)O)NC(=O)C(C)(C)NC(=O)[C@@H](N)Cc1ccc(O)cc1)[C@@H](C)O)[C@@H](C)O)[C@@H](C)CC)[C@@H](C)CC)C(=O)N[C@@H](CCCCNC(=O)COCCOCCNC(=O)COCCOCCNC(=O)CC[C@H](NC(=O)CCCCCCCCCOc1ccc(C(=O)O)cc1)C(=O)O)C(=O)NCC(=O)NCC(=O)N1CCC[C@H]1C(=O)N[C@@H](CO)C(=O)N[C@@H](CO)C(=O)NCC(=O)N[C@@H](C)C(=O)N1CCC[C@H]1C(=O)N1CCC[C@H]1C(=O)N1CCC[C@H]1C(=O)N[C@@H](CO)C(N)=O [Example 282]
- Emax (hGIPR; HEK293, read-out: hGIPR Emax, % ± SEM, 0.1% bovine casein and 1.0% human serum albumin, 37° C., percent of maximal response to GIP(1-42)NH2): 84.4%
- EC50 (hGIPR; hGIPR EC50, nM (SEM, n), 0.1% bovine casein and 1.0% human serum albumin, 37° C.): 1.44 nM
- EC50 (hGIPR; hGIPR EC50, nM (SEM, n), cAMP, 37° C., 0.1% bovine casein (no human serum albumin)): 0.0193 nM
- EC50 (hGCGR; hGCGR EC50, nM (SEM, n), 0.1% bovine casein and 1.0% human serum albumin, 37° C.): > 9950 nM
- EC50 (hGCGR; hGCGR EC50, nM (SEM, n), cAMP, 37° C., 0.1% bovine casein (no human serum albumin)): > 9950 nM
